# Reference: ChEMBL document CHEMBL3991601, “The target landscape of clinical kinase drugs” (Science, 2017)
# Active and inactive are the calls of the source. For most assays here, no stated cut-off is given here; in the data, actives have a measured Kd and inactives only a lower limit.
# Tests used:
# Glycine--tRNA ligase = molecular target: T1, Glycine--tRNA ligase (Homo sapiens, UniProt P41250)
# T1 sequence (P41250 whole entry): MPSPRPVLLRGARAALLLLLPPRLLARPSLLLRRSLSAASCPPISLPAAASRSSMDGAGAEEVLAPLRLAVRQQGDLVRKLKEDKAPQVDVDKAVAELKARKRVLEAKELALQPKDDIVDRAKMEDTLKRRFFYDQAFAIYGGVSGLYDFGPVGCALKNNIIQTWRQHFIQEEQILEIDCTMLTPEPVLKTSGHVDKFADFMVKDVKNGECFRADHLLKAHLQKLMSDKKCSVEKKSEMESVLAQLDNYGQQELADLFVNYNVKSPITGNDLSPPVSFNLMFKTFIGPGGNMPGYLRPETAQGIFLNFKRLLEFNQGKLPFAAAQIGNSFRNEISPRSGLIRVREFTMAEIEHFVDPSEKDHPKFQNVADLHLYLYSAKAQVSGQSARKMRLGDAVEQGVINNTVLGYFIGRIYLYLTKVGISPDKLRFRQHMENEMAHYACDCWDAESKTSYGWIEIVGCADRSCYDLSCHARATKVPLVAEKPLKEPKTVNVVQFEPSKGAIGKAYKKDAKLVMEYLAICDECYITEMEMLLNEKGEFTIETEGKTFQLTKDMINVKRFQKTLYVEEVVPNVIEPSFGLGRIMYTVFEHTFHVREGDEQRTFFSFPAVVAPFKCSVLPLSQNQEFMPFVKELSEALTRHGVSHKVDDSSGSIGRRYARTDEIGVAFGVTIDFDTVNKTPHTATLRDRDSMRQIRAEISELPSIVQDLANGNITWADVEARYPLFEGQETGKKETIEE
# [1] = molecular target: Serine/threonine-protein kinase MRCK alpha (Homo sapiens, UniProt Q5VT25)
# Serine/threonine-protein kinase MRCK alpha, sequence (Q5VT25 whole entry): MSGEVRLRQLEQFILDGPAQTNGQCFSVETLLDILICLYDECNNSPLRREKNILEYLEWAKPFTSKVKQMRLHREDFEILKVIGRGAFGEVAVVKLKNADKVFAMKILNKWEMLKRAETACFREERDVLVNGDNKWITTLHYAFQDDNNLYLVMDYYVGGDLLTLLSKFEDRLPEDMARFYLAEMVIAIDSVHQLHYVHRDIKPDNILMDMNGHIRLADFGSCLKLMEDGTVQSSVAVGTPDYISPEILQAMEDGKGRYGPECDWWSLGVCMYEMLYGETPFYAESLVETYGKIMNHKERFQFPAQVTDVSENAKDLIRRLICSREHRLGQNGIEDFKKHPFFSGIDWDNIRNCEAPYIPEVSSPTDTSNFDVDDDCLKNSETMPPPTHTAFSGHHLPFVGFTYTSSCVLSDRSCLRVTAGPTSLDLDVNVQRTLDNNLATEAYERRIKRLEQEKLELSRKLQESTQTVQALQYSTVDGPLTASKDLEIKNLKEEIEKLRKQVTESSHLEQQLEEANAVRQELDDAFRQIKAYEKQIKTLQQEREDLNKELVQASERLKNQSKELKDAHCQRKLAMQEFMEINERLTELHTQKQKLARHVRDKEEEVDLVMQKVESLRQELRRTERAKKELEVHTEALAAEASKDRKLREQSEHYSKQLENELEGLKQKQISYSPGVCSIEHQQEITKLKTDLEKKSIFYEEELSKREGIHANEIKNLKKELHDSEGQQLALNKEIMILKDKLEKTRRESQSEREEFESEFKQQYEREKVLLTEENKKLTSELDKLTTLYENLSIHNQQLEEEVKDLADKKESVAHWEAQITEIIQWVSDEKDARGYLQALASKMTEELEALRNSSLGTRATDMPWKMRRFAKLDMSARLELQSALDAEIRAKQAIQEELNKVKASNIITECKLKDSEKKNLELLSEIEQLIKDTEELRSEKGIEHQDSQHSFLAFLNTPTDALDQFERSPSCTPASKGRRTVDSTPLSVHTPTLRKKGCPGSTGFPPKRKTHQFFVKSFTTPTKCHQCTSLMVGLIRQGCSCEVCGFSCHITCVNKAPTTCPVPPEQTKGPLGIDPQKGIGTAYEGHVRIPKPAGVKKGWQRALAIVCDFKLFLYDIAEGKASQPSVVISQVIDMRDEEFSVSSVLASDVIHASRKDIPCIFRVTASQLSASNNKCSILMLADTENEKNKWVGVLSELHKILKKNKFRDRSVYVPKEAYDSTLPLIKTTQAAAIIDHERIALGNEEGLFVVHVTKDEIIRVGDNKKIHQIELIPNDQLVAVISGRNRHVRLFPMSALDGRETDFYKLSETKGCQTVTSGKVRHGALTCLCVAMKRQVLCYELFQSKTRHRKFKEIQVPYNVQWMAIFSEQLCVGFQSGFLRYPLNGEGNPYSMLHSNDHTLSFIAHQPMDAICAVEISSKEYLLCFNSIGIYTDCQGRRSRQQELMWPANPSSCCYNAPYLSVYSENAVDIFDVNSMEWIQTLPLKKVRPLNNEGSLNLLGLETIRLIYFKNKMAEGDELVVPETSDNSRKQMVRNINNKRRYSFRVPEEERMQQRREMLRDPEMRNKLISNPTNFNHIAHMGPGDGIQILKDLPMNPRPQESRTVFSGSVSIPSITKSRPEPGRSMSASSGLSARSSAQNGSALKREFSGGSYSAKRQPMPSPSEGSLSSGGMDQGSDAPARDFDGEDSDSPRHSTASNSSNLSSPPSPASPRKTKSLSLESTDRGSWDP
# Scaffold protein ILK = molecular target: T2, Scaffold protein ILK (Homo sapiens, UniProt Q13418)
# T2 sequence (Q13418 whole entry): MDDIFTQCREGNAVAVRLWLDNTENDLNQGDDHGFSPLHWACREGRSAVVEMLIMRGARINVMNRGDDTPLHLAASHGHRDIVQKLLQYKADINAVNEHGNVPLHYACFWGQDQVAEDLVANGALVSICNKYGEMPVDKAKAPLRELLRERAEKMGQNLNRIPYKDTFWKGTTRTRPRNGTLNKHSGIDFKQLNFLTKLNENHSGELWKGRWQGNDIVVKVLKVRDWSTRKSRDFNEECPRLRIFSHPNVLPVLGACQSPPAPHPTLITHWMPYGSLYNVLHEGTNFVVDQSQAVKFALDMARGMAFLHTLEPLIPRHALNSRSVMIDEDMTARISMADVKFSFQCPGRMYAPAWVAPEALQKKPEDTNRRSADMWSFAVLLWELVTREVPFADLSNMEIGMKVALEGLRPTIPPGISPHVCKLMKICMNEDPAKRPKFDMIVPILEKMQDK
# [2] = molecular target: T3, Membrane-associated tyrosine- and threonine-specific cdc2-inhibitory kinase (Homo sapiens, UniProt Q99640)
# T3 sequence (Q99640 whole entry): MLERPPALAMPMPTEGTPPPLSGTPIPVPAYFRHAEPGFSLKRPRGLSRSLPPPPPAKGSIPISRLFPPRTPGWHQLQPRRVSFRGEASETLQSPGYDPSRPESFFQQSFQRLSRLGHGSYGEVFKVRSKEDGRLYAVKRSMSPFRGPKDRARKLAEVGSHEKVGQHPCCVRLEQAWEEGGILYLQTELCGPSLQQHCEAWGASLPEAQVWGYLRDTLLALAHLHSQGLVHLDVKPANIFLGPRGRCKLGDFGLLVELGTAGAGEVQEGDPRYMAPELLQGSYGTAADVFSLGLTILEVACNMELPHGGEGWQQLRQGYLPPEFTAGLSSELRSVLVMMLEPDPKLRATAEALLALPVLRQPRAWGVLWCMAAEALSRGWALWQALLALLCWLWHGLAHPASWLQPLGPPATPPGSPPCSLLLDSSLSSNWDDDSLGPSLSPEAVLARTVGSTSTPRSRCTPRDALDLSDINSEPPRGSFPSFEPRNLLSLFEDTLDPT
# [3] = molecular target: T4, EKC/KEOPS complex subunit TP53RK (Homo sapiens, UniProt Q96S44)
# T4 sequence (Q96S44 whole entry): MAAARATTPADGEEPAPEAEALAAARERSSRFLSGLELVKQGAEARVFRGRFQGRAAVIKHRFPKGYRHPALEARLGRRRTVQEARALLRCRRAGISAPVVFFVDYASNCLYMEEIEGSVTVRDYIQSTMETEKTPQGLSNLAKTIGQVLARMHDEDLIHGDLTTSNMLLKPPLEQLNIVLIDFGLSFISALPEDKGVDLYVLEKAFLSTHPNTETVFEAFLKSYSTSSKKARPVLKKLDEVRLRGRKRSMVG
# [4] = molecular target: Macrophage-stimulating protein receptor (Homo sapiens, UniProt Q04912)
# Macrophage-stimulating protein receptor, sequence (Q04912 25-304 limits assumed): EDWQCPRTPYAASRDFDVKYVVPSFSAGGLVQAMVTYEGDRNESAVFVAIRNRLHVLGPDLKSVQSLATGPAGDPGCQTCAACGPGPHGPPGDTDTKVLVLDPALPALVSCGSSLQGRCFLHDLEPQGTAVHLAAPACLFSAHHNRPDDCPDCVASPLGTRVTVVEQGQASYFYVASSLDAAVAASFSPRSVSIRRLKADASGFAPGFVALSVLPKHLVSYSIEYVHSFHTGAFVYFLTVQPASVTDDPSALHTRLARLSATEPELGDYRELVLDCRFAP
# Macrophage-stimulating protein receptor, sequence (Q04912 310-1400 limits assumed): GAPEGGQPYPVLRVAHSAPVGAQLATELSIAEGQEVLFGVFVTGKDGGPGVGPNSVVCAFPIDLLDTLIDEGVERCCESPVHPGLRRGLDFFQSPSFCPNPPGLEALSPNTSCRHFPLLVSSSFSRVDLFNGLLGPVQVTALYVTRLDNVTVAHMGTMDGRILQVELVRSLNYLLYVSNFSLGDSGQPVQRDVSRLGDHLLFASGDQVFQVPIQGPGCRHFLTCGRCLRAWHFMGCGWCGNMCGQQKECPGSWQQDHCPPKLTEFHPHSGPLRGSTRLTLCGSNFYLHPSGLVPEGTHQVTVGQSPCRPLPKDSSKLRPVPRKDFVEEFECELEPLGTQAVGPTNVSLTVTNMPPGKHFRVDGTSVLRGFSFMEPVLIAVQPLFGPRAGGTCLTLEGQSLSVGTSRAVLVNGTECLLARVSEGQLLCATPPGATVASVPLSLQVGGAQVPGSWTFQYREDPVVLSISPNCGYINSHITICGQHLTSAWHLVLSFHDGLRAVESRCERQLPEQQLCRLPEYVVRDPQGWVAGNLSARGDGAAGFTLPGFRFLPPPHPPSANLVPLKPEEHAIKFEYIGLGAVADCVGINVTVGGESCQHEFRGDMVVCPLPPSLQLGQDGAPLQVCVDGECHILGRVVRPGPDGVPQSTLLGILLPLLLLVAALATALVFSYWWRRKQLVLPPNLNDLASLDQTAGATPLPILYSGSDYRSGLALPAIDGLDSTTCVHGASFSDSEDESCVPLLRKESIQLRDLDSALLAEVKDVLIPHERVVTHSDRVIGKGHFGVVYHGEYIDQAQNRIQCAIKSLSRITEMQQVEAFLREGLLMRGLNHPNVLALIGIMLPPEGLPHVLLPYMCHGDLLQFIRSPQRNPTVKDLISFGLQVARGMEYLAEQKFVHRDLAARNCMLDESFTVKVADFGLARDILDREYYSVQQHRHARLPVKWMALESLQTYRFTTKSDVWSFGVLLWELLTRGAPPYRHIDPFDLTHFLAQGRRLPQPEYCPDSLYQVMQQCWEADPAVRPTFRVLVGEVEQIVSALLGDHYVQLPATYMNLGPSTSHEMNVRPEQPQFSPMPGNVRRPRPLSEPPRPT
# [5] = molecular target: T5, Mitogen-activated protein kinase 15 (Homo sapiens, UniProt Q8TD08)
# T5 sequence (Q8TD08 whole entry): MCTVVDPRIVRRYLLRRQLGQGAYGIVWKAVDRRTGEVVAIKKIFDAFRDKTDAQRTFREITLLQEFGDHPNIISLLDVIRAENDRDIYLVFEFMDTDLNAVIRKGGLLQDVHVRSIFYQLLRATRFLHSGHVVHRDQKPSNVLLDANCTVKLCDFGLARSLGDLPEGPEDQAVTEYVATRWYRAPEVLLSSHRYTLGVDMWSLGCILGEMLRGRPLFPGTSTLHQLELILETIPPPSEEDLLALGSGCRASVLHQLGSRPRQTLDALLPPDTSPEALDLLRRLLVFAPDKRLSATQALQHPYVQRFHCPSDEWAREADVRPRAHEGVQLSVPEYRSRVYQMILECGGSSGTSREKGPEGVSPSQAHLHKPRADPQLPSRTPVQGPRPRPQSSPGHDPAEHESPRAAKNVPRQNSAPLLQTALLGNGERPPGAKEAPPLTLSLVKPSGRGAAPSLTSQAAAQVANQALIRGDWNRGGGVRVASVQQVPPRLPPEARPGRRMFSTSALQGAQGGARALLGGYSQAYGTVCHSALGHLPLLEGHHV
# [6] = molecular target: Mitogen-activated protein kinase 9 (Homo sapiens, UniProt P45984)
# Mitogen-activated protein kinase 9, sequence (P45984 whole entry): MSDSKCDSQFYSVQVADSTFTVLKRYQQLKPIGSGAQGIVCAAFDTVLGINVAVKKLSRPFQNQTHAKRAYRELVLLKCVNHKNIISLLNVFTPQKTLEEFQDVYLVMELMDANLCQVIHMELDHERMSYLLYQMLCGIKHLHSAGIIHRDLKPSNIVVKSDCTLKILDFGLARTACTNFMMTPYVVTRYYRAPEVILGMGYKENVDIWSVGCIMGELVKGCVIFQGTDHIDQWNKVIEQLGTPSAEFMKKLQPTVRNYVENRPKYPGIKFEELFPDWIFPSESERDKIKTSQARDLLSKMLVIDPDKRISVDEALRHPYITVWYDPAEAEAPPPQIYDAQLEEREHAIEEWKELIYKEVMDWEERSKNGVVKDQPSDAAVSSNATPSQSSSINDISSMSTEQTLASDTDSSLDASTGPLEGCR
# [7] = molecular target: Tyrosine-protein kinase ABL1 (Homo sapiens, UniProt P00519)
# Tyrosine-protein kinase ABL1, sequence (P00519 whole entry): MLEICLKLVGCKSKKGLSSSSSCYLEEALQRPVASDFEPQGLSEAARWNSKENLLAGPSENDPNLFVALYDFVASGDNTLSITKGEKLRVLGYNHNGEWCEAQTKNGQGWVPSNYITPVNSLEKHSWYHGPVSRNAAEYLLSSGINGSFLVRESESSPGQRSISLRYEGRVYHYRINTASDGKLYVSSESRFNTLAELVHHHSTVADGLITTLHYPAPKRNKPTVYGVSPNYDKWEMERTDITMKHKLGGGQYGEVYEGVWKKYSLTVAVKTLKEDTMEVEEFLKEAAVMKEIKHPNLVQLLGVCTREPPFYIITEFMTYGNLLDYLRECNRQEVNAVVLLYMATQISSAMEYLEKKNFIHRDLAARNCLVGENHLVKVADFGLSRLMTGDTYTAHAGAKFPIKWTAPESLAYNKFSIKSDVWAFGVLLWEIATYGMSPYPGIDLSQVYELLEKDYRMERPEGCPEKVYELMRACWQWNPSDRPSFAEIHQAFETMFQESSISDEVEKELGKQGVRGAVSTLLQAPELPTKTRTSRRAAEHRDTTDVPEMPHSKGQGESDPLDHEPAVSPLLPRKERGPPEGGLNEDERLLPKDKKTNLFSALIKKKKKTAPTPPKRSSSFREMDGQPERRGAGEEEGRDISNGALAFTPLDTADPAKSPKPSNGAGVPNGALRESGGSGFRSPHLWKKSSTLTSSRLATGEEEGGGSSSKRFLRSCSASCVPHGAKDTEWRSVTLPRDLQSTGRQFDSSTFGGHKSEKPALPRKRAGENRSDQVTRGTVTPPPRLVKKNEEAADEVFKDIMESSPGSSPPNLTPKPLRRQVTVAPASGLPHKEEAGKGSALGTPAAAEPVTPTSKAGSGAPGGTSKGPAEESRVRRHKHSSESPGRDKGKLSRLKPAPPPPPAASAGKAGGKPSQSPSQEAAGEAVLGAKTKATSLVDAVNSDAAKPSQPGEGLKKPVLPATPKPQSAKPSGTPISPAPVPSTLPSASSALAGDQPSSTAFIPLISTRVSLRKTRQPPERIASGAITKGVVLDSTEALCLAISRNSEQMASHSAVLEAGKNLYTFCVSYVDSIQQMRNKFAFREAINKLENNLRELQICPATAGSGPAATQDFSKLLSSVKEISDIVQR
Structure (SMILES),Kd (Glycine--tRNA ligase),Kd [1],Kd (Scaffold protein ILK),Kd [2],Kd [3],Kd [4],Kd [6],Kd [7],Kd [5]
COC(=O)N[C@@H](C)CNc1nccc(-c2cn(C(C)C)nc2-c2cc(Cl)cc(NS(C)(=O)=O)c2F)n1 [ENCORAFENIB],> 30 µM (inactive),> 30 µM (inactive),> 30 µM (inactive),> 30 µM (inactive),> 30 µM (inactive),> 30 µM (inactive),0.915 µM (active),> 30 µM (inactive),> 30 µM (inactive)
CO[C@H]1C[C@@H]2CC[C@@H](C)[C@@](O)(O2)C(=O)C(=O)N2CCCC[C@H]2C(=O)O[C@H]([C@H](C)C[C@@H]2CC[C@@H](OCCO)[C@H](OC)C2)CC(=O)[C@H](C)/C=C(\C)[C@@H](O)[C@@H](OC)C(=O)[C@H](C)C[C@H](C)/C=C/C=C/C=C/1C [EVEROLIMUS],> 30 µM (inactive),> 30 µM (inactive),> 30 µM (inactive),> 30 µM (inactive),> 30 µM (inactive),> 30 µM (inactive),> 30 µM (inactive),> 30 µM (inactive),> 30 µM (inactive)
COCCNCc1ccc(-c2cc3nccc(Oc4ccc(NC(=S)NC(=O)Cc5ccc(F)cc5)cc4F)c3s2)nc1 [GLESATINIB],> 30 µM (inactive),> 30 µM (inactive),> 30 µM (inactive),> 30 µM (inactive),> 30 µM (inactive),2.32 µM (active),> 30 µM (inactive),0.241 µM (active),> 30 µM (inactive)
CC[C@H](Nc1ncnc2[nH]cnc12)c1nc2cccc(F)c2c(=O)n1-c1ccccc1 [IDELALISIB],> 30 µM (inactive),> 30 µM (inactive),> 30 µM (inactive),> 30 µM (inactive),> 30 µM (inactive),> 30 µM (inactive),> 30 µM (inactive),> 30 µM (inactive),> 30 µM (inactive)
COC(=O)[C@@]1(O)C[C@H]2O[C@]1(C)n1c3ccccc3c3c4c(c5c6ccccc6n2c5c31)C(=O)NC4 [K-252A],> 30 µM (inactive),> 30 µM (inactive),> 30 µM (inactive),> 30 µM (inactive),3.84 µM (active),> 30 µM (inactive),0.986 µM (active),> 30 µM (inactive),0.167 µM (active)
Cc1c(F)cc(C(=O)NC2CC2)cc1-c1ccc(C(=O)NCC(C)(C)C)cn1 [LOSMAPIMOD],> 30 µM (inactive),> 30 µM (inactive),> 30 µM (inactive),> 30 µM (inactive),> 30 µM (inactive),> 30 µM (inactive),> 30 µM (inactive),> 30 µM (inactive),> 30 µM (inactive)
Cc1ccc(-n2nc(C(C)(C)C)cc2NC(=O)NCc2cc(F)ccc2Oc2ccc3c(cnn3CCO)c2)cc1 [PEXMETINIB],> 30 µM (inactive),> 30 µM (inactive),> 30 µM (inactive),> 30 µM (inactive),> 30 µM (inactive),> 30 µM (inactive),0.312 µM (active),0.211 µM (active),> 30 µM (inactive)
CNC(=O)c1cc(Oc2ccc(NC(=O)Nc3ccc(Cl)c(C(F)(F)F)c3)c(F)c2)ccn1 [REGORAFENIB],> 30 µM (inactive),> 30 µM (inactive),> 30 µM (inactive),> 30 µM (inactive),> 30 µM (inactive),> 30 µM (inactive),> 30 µM (inactive),0.753 µM (active),> 30 µM (inactive)
CN(C)C(=O)c1cc2cnc(Nc3ccc(N4CCNCC4)cn3)nc2n1C1CCCC1 [RIBOCICLIB],> 30 µM (inactive),> 30 µM (inactive),> 30 µM (inactive),> 30 µM (inactive),> 30 µM (inactive),> 30 µM (inactive),> 30 µM (inactive),> 30 µM (inactive),> 30 µM (inactive)
COc1cc(OC)c(/C=C/S(=O)(=O)Cc2ccc(OC)c(NCC(=O)O)c2)c(OC)c1 [RIGOSERTIB],> 30 µM (inactive),> 30 µM (inactive),> 30 µM (inactive),> 30 µM (inactive),> 30 µM (inactive),> 30 µM (inactive),> 30 µM (inactive),> 30 µM (inactive),> 30 µM (inactive)
CNC(=O)CN1CCC(Oc2cc3c(Nc4cccc(Cl)c4F)ncnc3cc2OC)CC1 [SAPITINIB],> 30 µM (inactive),> 30 µM (inactive),> 30 µM (inactive),> 30 µM (inactive),> 30 µM (inactive),> 30 µM (inactive),> 30 µM (inactive),> 30 µM (inactive),> 30 µM (inactive)

# The next lines start with results.
Kd (Glycine--tRNA ligase),Kd [1],Kd (Scaffold protein ILK),Kd [2],Kd [3],Kd [4],Kd [6],Kd [7],Structure (SMILES),Kd [5]
> 30 µM (inactive),> 30 µM (inactive),> 30 µM (inactive),> 30 µM (inactive),0.058 µM (active),> 30 µM (inactive),> 30 µM (inactive),> 30 µM (inactive),O=C1NC(=O)/C(=C/c2ccc3nccc(-c4ccncc4)c3c2)S1 [GSK-1059615],> 30 µM (inactive)
> 30 µM (inactive),> 30 µM (inactive),> 30 µM (inactive),> 30 µM (inactive),> 30 µM (inactive),> 30 µM (inactive),> 30 µM (inactive),> 30 µM (inactive),Cn1cc(-c2ccc3nnc(C(F)(F)c4ccc5ncccc5c4)n3n2)cn1 [JNJ-38877605],> 30 µM (inactive)
> 30 µM (inactive),> 30 µM (inactive),> 30 µM (inactive),> 30 µM (inactive),> 30 µM (inactive),> 30 µM (inactive),> 30 µM (inactive),> 30 µM (inactive),Cn1cc(-c2ccc(F)c(C(F)(F)F)c2)nc1C1CCN(c2ncnc3[nH]ncc23)CC1 [LY-2584702],> 30 µM (inactive)
> 30 µM (inactive),> 30 µM (inactive),> 30 µM (inactive),> 30 µM (inactive),> 30 µM (inactive),> 30 µM (inactive),> 30 µM (inactive),0.062 µM (active),O=C(O)[C@]1(Cc2cccc(Nc3nccs3)n2)CC[C@@H](Oc2cccc(Cl)c2F)CC1 [MK-5108],> 30 µM (inactive)
